In PubChem BioAssay (NCI) one finds TGI data, which are given here for 15 molecules.

Test systems include HCT-116 colon; HCT-15 colon; K-562 leukemia; KM12 colon; LOX IMVI melanoma; M14 melanoma; NCI-H522 lung; RPMI-8226 leukemia; SF-268 CNS; SF-295 CNS; SF-539 CNS; SN12C renal; SR leukemia; T-47D breast; TK-10 renal; U251 CNS; UO-31 renal; RXF 393 renal; SK-OV-3 ovarian; PC-3 prostate.
Holding throughout (test): growth of human tumour cells (NCI), 48 h

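Step 1: Grow cells in 96-well plates. Step 2: Expose to compound for 48 hours at 5 concentrations. Step 3: Interpolate endpoints linearly; if unreached, use highest concentration. TGI: total growth inhibition.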 Some results are limits rather than exact numbers.

For `O=S(Nc1ccccc1)c1ccc(Cl)c(Cl)c1` (centres undefined), the TGI is greater than 100 µM with HCT-116 colon; greater than 100 µM in the assay with HCT-15 colon; greater than 100 µM in the assay on K-562 leukemia; 33.1 µM in the assay on KM12 colon; greater than 100 µM in the assay on LOX IMVI melanoma; greater than 100 µM with M14 melanoma. The TGI in the assay on NCI-H522 lung was greater than 100 µM; with RPMI-8226 leukemia, greater than 100 µM; with SF-268 CNS, 82.9 µM; in the assay on SF-295 CNS it was 50.1 µM; in the assay on SF-539 CNS, 53 µM; in the assay on SN12C renal it was greater than 100 µM. For the same molecule, the TGI with SR leukemia was greater than 100 µM; with T-47D breast it was 42.4 µM; with TK-10 renal it was greater than 100 µM; with U251 CNS it was 34.2 µM; in the assay on UO-31 renal, greater than 100 µM.
`NC1CC(Cl)c2c(Cl)sc(Cl)c21` (centres undefined): the TGI in the assay with HCT-116 colon, with HCT-15 colon, in the assay on K-562 leukemia, in the assay with KM12 colon, with LOX IMVI melanoma and in the assay on M14 melanoma was greater than 100 µM each time. For the same molecule, the TGI with NCI-H522 lung is 0.049 µM; in the assay on RXF 393 renal, greater than 100 µM; with SF-268 CNS, greater than 100 µM; with SF-295 CNS, greater than 100 µM; in the assay on SF-539 CNS, greater than 100 µM; in the assay on SK-OV-3 ovarian it was greater than 100 µM. For the same molecule, the TGI in the assay on SN12C renal, with SR leukemia, with T-47D breast, in the assay on TK-10 renal, in the assay with U251 CNS and in the assay on UO-31 renal was greater than 100 µM throughout.
On to `CC1OC(OC2C(OC(=O)[C@@H]3CC(C)(C)C[C@@H]4C5=CC[C@@H]6[C@@]7(C)C[C@H](O)[C@H](OC8OC(CO)C(O)C(O)C8O)[C@@](C)(CO)C7[C@H](O)C[C@@]6(C)[C@]5(C)C[C@@H](O)[C@H]43)OCC(O)C2O)C(O)C(O)C1O` (some centres undefined), for which the TGI in the assay on HCT-116 colon, in the assay with HCT-15 colon, in the assay on K-562 leukemia, in the assay with KM12 colon, with LOX IMVI melanoma and in the assay on M14 melanoma was greater than 15 µM in each case. Besides, the TGI in the assay on NCI-H522 lung, in the assay on PC-3 prostate, in the assay on RXF 393 renal, in the assay on SF-268 CNS, in the assay with SF-295 CNS and in the assay with SF-539 CNS was greater than 15 µM throughout. For the same molecule, the TGI in the assay on SK-OV-3 ovarian, in the assay on SN12C renal, in the assay on T-47D breast, in the assay with TK-10 renal, in the assay with U251 CNS and in the assay with UO-31 renal was greater than 15 µM each time.
For `COc1ccc(/C=C2\N=C(SC)N(CN3CCCCC3)C2=O)cc1`, the TGI in the assay with HCT-116 colon, with HCT-15 colon, in the assay with K-562 leukemia, in the assay on KM12 colon, with LOX IMVI melanoma and with M14 melanoma was greater than 100 µM in each case. Moreover, the TGI in the assay on NCI-H522 lung, with PC-3 prostate, in the assay with RPMI-8226 leukemia, in the assay on SF-268 CNS, with SF-295 CNS and in the assay on SK-OV-3 ovarian was greater than 100 µM throughout. For the same molecule, the TGI with SN12C renal, in the assay on SR leukemia, in the assay on TK-10 renal, in the assay with U251 CNS and in the assay on UO-31 renal was greater than 100 µM throughout.
Regarding `Oc1cc(-c2ccc(Cl)cc2)cn2c1nc1ccccc12`, the TGI in the assay with HCT-116 colon, in the assay on HCT-15 colon, in the assay with K-562 leukemia, in the assay on KM12 colon, in the assay with LOX IMVI melanoma and in the assay with M14 melanoma was greater than 100 µM each time. For the same molecule, the TGI in the assay with NCI-H522 lung, in the assay on PC-3 prostate, with RXF 393 renal, in the assay with SF-268 CNS, in the assay with SF-295 CNS and in the assay on SF-539 CNS was greater than 100 µM throughout. Further, the TGI in the assay with SK-OV-3 ovarian, in the assay with SN12C renal, in the assay on T-47D breast, in the assay on TK-10 renal, in the assay on U251 CNS and with UO-31 renal was greater than 100 µM in each case.
Regarding `O=C(O)CCc1cccc2c1oc1c(CCC(=O)O)cccc12`, the TGI in the assay with HCT-116 colon, in the assay with HCT-15 colon, in the assay with K-562 leukemia, in the assay on KM12 colon, with LOX IMVI melanoma and with M14 melanoma was greater than 100 µM throughout. Further, the TGI in the assay on NCI-H522 lung, in the assay with RPMI-8226 leukemia, in the assay with RXF 393 renal, in the assay with SF-268 CNS, in the assay on SF-295 CNS and in the assay with SF-539 CNS was greater than 100 µM in each case. For the same molecule, the TGI in the assay on SK-OV-3 ovarian, in the assay on SN12C renal, in the assay with SR leukemia, with TK-10 renal, in the assay on U251 CNS and with UO-31 renal was greater than 100 µM throughout.
Consider `CC(C)(C)OC(=O)NC(CCC(=O)OCc1ccccc1)C(=O)NCCCO` (centres undefined), for which the TGI in the assay with HCT-116 colon, with HCT-15 colon, in the assay with K-562 leukemia, with KM12 colon, with LOX IMVI melanoma and in the assay on M14 melanoma was greater than 100 µM in each case. Also, the TGI with NCI-H522 lung, in the assay with RPMI-8226 leukemia, with RXF 393 renal, with SF-268 CNS, in the assay with SF-539 CNS and in the assay on SK-OV-3 ovarian was greater than 100 µM throughout. Further, the TGI in the assay with SN12C renal, in the assay with SR leukemia, in the assay on T-47D breast, with TK-10 renal, in the assay on U251 CNS and in the assay with UO-31 renal was greater than 100 µM each time.
As to `CN1C(=O)C(c2c[nH]c3ccccc23)N(C)C(=O)C1c1c[nH]c2ccccc12` (centres undefined), the TGI with HCT-116 colon, with HCT-15 colon, in the assay with K-562 leukemia, in the assay on KM12 colon, in the assay on LOX IMVI melanoma and in the assay with M14 melanoma was greater than 100 µM in each case. In addition, the TGI with NCI-H522 lung, in the assay on PC-3 prostate, in the assay with RXF 393 renal, in the assay on SF-268 CNS, in the assay with SF-295 CNS and with SF-539 CNS was greater than 100 µM in each case. Further, the TGI in the assay on SK-OV-3 ovarian, in the assay with SN12C renal, in the assay on T-47D breast, in the assay with TK-10 renal, with U251 CNS and with UO-31 renal was greater than 100 µM in each case.
With `C[C@]12C[C@@H](c3ccccc3)Nc3ccccc3N1C(c1ccccc1)=NO2`, the TGI in the assay with HCT-116 colon was greater than 100 µM; in the assay on HCT-15 colon, greater than 100 µM; in the assay with K-562 leukemia it was greater than 100 µM; with KM12 colon, greater than 100 µM; in the assay with M14 melanoma it was 93.3 µM; with NCI-H522 lung, 86.4 µM. The TGI was greater than 100 µM in the assay on PC-3 prostate; 49.3 µM in the assay on RPMI-8226 leukemia; greater than 100 µM with RXF 393 renal; greater than 100 µM in the assay with SF-268 CNS; greater than 100 µM in the assay on SF-295 CNS; greater than 100 µM in the assay with SF-539 CNS. For the same molecule, the TGI with SK-OV-3 ovarian was greater than 100 µM; in the assay on SN12C renal, greater than 100 µM; in the assay with SR leukemia, 34.6 µM; in the assay on TK-10 renal it was greater than 100 µM; in the assay with U251 CNS, greater than 100 µM; in the assay on UO-31 renal, 89.5 µM.
Regarding `CC(=O)C(CN(Cc1ccccc1)Cc1ccccc1)C(c1ccccc1)c1c(O)c2ccccc2oc1=O` (centres undefined), the TGI with HCT-116 colon, with HCT-15 colon, with K-562 leukemia, in the assay on KM12 colon, in the assay with LOX IMVI melanoma and in the assay with M14 melanoma was greater than 100 µM throughout. In addition, the TGI in the assay on NCI-H522 lung, in the assay on RPMI-8226 leukemia, in the assay with RXF 393 renal, in the assay on SF-268 CNS, with SF-295 CNS and with SF-539 CNS was greater than 100 µM each time. Besides, the TGI in the assay with SK-OV-3 ovarian, with SN12C renal, in the assay on SR leukemia, in the assay with TK-10 renal, in the assay on U251 CNS and in the assay on UO-31 renal was greater than 100 µM throughout.
Turning to `COc1c(Br)cc(/C=C(\C#N)c2cccnc2)cc1Br`, the TGI in the assay with HCT-116 colon, with HCT-15 colon, in the assay on K-562 leukemia, with KM12 colon, in the assay on M14 melanoma and with NCI-H522 lung was greater than 100 µM throughout. The TGI in the assay on PC-3 prostate, in the assay with RPMI-8226 leukemia, in the assay with RXF 393 renal, with SF-268 CNS, in the assay on SF-295 CNS and in the assay on SF-539 CNS was greater than 100 µM each time. The TGI in the assay on SK-OV-3 ovarian, in the assay on SN12C renal, in the assay with SR leukemia, with TK-10 renal, with U251 CNS and in the assay with UO-31 renal was greater than 100 µM each time.
On to `NC(=O)C1Cc2cc3c(cc21)OCO3` (centres undefined), for which the TGI with HCT-116 colon, with HCT-15 colon, in the assay on KM12 colon, in the assay with LOX IMVI melanoma, in the assay on M14 melanoma and in the assay with NCI-H522 lung was greater than 100 µM throughout. Further, the TGI with PC-3 prostate, with RXF 393 renal, with SF-268 CNS, in the assay on SF-295 CNS, in the assay with SF-539 CNS and with SK-OV-3 ovarian was greater than 100 µM throughout. Also, the TGI in the assay on TK-10 renal and in the assay with UO-31 renal was greater than 100 µM each time.
In the case of `CN(C(=O)C1CCCCCC1=O)c1ccccc1Cl` (centres undefined), the TGI with HCT-116 colon, with HCT-15 colon, with KM12 colon, in the assay with LOX IMVI melanoma, in the assay on M14 melanoma and in the assay with NCI-H522 lung was greater than 100 µM throughout. The TGI in the assay on RPMI-8226 leukemia, in the assay with RXF 393 renal, with SF-268 CNS, with SF-295 CNS, in the assay on SF-539 CNS and in the assay on SK-OV-3 ovarian was greater than 100 µM throughout. Moreover, the TGI in the assay on SN12C renal, in the assay on T-47D breast, in the assay on TK-10 renal, with U251 CNS and in the assay on UO-31 renal was greater than 100 µM in each case.
Consider `CC(=O)N(C(C)=O)n1c(-c2ccccc2)n[nH]c1=O`, for which the TGI with HCT-116 colon, in the assay on HCT-15 colon, in the assay on K-562 leukemia, in the assay with KM12 colon, with LOX IMVI melanoma and with M14 melanoma was greater than 100 µM in each case. For the same molecule, the TGI in the assay with NCI-H522 lung, in the assay with PC-3 prostate, with RPMI-8226 leukemia, in the assay with RXF 393 renal, with SF-268 CNS and in the assay on SF-295 CNS was greater than 100 µM in each case. Further, the TGI in the assay on SF-539 CNS, with SK-OV-3 ovarian, with SN12C renal, in the assay on SR leukemia, in the assay with TK-10 renal and in the assay on U251 CNS was greater than 100 µM in each case. In the assay on UO-31 renal, this molecule registered a TGI greater than 100 µM.
As to `O=C(O)CCC(NC(=O)c1ccccc1)C(=O)O` (centres undefined), the TGI in the assay with HCT-116 colon, in the assay with HCT-15 colon, with K-562 leukemia, in the assay with KM12 colon, in the assay on LOX IMVI melanoma and in the assay with M14 melanoma was greater than 100 µM in each case. Further, the TGI with NCI-H522 lung, with RPMI-8226 leukemia, in the assay with RXF 393 renal, with SF-268 CNS, with SF-295 CNS and with SF-539 CNS was greater than 100 µM in each case. Further, the TGI in the assay with SK-OV-3 ovarian, in the assay on SN12C renal, in the assay with SR leukemia, in the assay on TK-10 renal, in the assay on U251 CNS and in the assay on UO-31 renal was greater than 100 µM throughout.
